Our source for the GI50 and TGI values is PubChem BioAssay (NCI).

Common to all, as to assay: NCI-60 cell line screen, 48 h
For test [1], the system named is A498 renal.
Test [2] has as its system A549 NSCLC.
Test [3] relates to CAKI-1 renal.
Test [4] relates to NCI-H522 lung.
Test [5] relates to NCI/ADR-RES ovarian.
In test [6] the test system is OVCAR-3 ovarian.
In test [7] the test system is OVCAR-4 ovarian.
For test [8], the system named is PC-3 prostate.
Test [9] has as its system SNB-75 CNS.
Test [10] relates to UACC-257 melanoma.

Structures are written as SMILES. “And” between values parts separate entries of the source, which are not always exact repeats. Equal values may be shown once.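 Cultured in 96-well plates, cells were exposed to test compound for 48 hours across five concentrations. The concentration for 50% growth inhibition is given as GI50. At the TGI there is no net growth.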

With `CC(C)CC(CC1=CCC2CC1C2(C)C)C1=C(O)C(C)(C)C(=O)C(C)(C)C1=O` (centres undefined), the GI50 is 0.236 µM in [1]; 0.359 µM in test [2]; 0.332 µM in test [3]; 0.271 µM in [4]; 0.306 µM in test [5]; 0.359 µM in test [6]. For the same compound, the GI50 is 0.486 µM in test [7], 0.318 µM in test [8], 0.24 µM in test [9] and 0.256 µM in [10]. Also, the TGI in test [1] is 0.651 µM; in test [2] it was more than 100 µM; in test [3] it was 2.29 µM; in [4], 0.992 µM; in test [5] it was 0.979 µM; in test [6], more than 100 µM. In addition, the TGI in test [7] was more than 100 µM; in test [8], more than 100 µM; in test [9], 9.67 µM; in test [10], 0.792 µM.
Turning to `Cc1cc(N/N=C/c2nc(-c3ccc(Br)cc3)oc2C)c2cc(Cl)ccc2n1`, the GI50 in test [1], in test [2], in test [3], in [4], in test [5] and in test [6] was more than 100 µM throughout. The GI50 in test [7], in [8], in test [9] and in [10] was more than 100 µM throughout. Also, the TGI in test [1], in [2], in [3], in [4], in [5] and in test [6] was more than 100 µM each time. Also, the TGI in test [7], in test [8], in test [9] and in [10] was more than 100 µM each time.
As to `O=S(=O)(NCCNC/C=C/c1ccc(Br)cc1)c1cccc2cnccc12`, the GI50 was 8.86 µM and 11.8 µM in test [1]; 11.3 µM and 13.6 µM in [2]; 4.15 µM and 9.99 µM in test [3]; 12.6 µM and 13.7 µM in test [4]; 12.3 µM and 14.3 µM in test [5]; 12 µM and 14.2 µM in [6]. In addition, the GI50 in test [7] is 5.51 µM and 7.36 µM; in [8], 7.18 µM and 11.2 µM; in [9], 3.14 µM and 1.85 µM; in [10], 7.83 µM and 14.3 µM. Moreover, the TGI was 23.8 µM and 25.1 µM in [1]; 24.9 µM and 27.4 µM in [2]; 18 µM and 27 µM in [3]; 26.6 µM and 28.3 µM in [4]; 28.8 µM and 32.3 µM in test [5]; 24.6 µM and 28.3 µM in [6]. Also, the TGI in test [7] is 18.6 µM and 23.6 µM; in test [8], 21.2 µM and 24.5 µM; in test [9] it was 14.7 µM and 13.5 µM; in [10] it was 20.8 µM and 27.5 µM.
Take `C[C@]12CCC3[C@@H](CC[C@@H]4c5nonc5CC[C@]34C)C1CCC(=O)N2` (some centres undefined): the GI50 was more than 88.8 µM in test [1], more than 100 µM in test [5], 68.3 µM in [8] and 35.2 µM in test [9]. Also, the TGI in test [1], in test [2], in test [3], in test [4], in test [5] and in [6] was more than 100 µM in each case. Further, the TGI in test [7], in test [8], in [9] and in test [10] was more than 100 µM in each case.
Turning to `O=[N+]([O-])c1cccc(-c2nc3sccn3c2-c2ccnc(NCCCNS(=O)(=O)c3cccc(F)c3)n2)c1`, the GI50 was 1.56 µM in test [1]; 2.68 µM in test [2]; 2.33 µM in test [3]; 2.02 µM in [4]; 1.72 µM in [5]; 2.53 µM in [6]. In addition, the GI50 in test [7] is 1.64 µM; in [8], 1.37 µM; in test [9], 1.52 µM; in test [10], 2.71 µM. The TGI in [1] was determined as 30.5 µM; in test [2] it was 24.3 µM; in test [3] it was 14.1 µM; in [4] it was 7.97 µM; in test [5], 6.49 µM; in [6] it was 11.9 µM. For the same compound, the TGI in [7] was 7.64 µM; in test [8] it was 6.62 µM; in test [9] it was 4.24 µM; in test [10] it was 8.27 µM.
Turning to `O=c1[nH]c2ccccc2nc1-c1c[nH]c2ccccc12`, the GI50 was 7.4 µM in test [1]; more than 100 µM in test [2]; 2.49 µM in [3]; more than 100 µM in test [4]; more than 100 µM in test [5]; 9.57 µM in test [6]. The GI50 was more than 100 µM in [7], more than 100 µM in [8], 2.93 µM in [9] and more than 100 µM in test [10]. Also, the TGI in test [1], in test [2], in [3], in [4], in [5] and in test [6] was more than 100 µM throughout. Besides, the TGI in test [7], in [8], in test [9] and in test [10] was more than 100 µM each time.
Take `CN1CCN(Cc2ccc(NC(=O)c3cncc(C#Cc4cnc(N)c5ccncc45)c3)cc2C(F)(F)F)CC1`: the GI50 was 0.279 µM in test [1]; 1.38 µM in [2]; 1.59 µM in [3]; 0.897 µM in test [4]; 6.74 µM in [5]; 1.53 µM in [6]. Besides, the GI50 in test [7] was 0.283 µM; in test [8], 1.77 µM; in test [9] it was 0.898 µM; in test [10], 0.573 µM. The TGI was 1.7 µM in test [1]; 6.92 µM in test [2]; more than 16.3 µM in test [3]; 8.51 µM in test [4]; 16.5 µM in test [5]; 7.51 µM in test [6]. Moreover, the TGI was 6.32 µM in [7], 9.18 µM in [8], 5.08 µM in test [9] and 4.68 µM in [10].
Regarding `CCCn1c(C)nc2c1C(=O)c1ccccc1C2=O`, the GI50 was 34.6 µM in test [1]; 28.5 µM in [2]; 12.2 µM in test [3]; 18.7 µM in test [4]; 22.9 µM in test [5]; 11.6 µM in test [6]. Besides, the GI50 is 25 µM in test [7], 11 µM in [8], 55.4 µM in test [9] and 16.5 µM in test [10]. For the same compound, the TGI in test [1] is more than 100 µM; in test [2], more than 100 µM; in test [3], 42.4 µM; in test [4], 75.1 µM; in test [5], more than 100 µM; in test [6] it was 39.2 µM. Further, the TGI is more than 100 µM in test [7], more than 100 µM in [8], more than 100 µM in test [9] and 49 µM in test [10].
